Values of other authors, collected in US9763897B2, “Therapeutic astaxanthin and phospholipid composition and associated method” (U.S. NUTRACEUTICALS, LLC, priority 2010, dated 2017).
Each block holds one compound with its values, some of them ahead of it.

How the values were obtained:
[1] = tested on: LDL cholesterol oxidation; conditions: 4 mg astaxanthin per day for two weeks
[2] = tested on: C-Reactive Protein (C-RP)
[3] = tested on: LDL cholesterol; conditions: 3.6 mg astaxanthin per day for two weeks
[4] = tested on: pro-oxidant activity of Vioxx (membrane lipid per-oxidation); conditions: in vitro
[5] = tested on: lens epithelial cells; conditions: umol/L concentrations
[6] = 6 mg per day, eight weeks, healthy adults

negative effect of supplementation [6]: no negative effect
Structure (SMILES): CC1=C(/C=C/C(C)=C/C=C/C(C)=C/C=C/C=C(C)/C=C/C=C(C)/C=C/C2=C(C)C(=O)[C@@H](O)CC2(C)C)C(C)(C)C[C@H](O)C1=O [Astaxanthin, 3,3′-dihydroxy-β-β-carotene-4,4′-dione]
reduction of LDL cholesterol oxidation [1]: 26%
decrease in C-reactive protein scores ([2]; 4 mg astaxanthin for eight weeks): 21%
drop in serum C-RP levels ([2]; human subjects with high risk C-RP levels, three months of treatment): 43%
protection of LDL cholesterol against induced in vitro oxidation [3]: protects LDL cholesterol against induced in vitro oxidation
effect on pro-oxidant activity of Vioxx [4]: negate the pro-oxidant activity of Vioxx
effect on UVB induced lipid per-oxidative mediated cell damage [5]: suppresses UVB induced lipid per-oxidative mediated cell damage

relative absorption of astaxanthin compared to the other two isomers (men, Coral-Hinostroza et al. (2004)): higher relative absorption
Structure (SMILES): CCCCCCCCCCCCCCCC(=O)O[C@H]1CC(C)(C)C(/C=C/C(C)=C/C=C/C(C)=C/C=C/C=C(C)/C=C/C=C(C)/C=C/C2=C(C)C(=O)[C@@H](OC(=O)CCCCCCCCCCCCCCC)CC2(C)C)=C(C)C1=O [3R,3′R-astaxanthin dipalmitate, (3R,3′R-astaxanthin dipalmitate, reference compound]

uptake relative to esterified astaxanthin (human plasma, versus esterified astaxanthin): 4-5 times
Structure (SMILES): CC1=C(/C=C/C(C)=C/C=C/C(C)=C/C=C/C=C(C)/C=C/C=C(C)/C=C/C2=C(C)C(=O)[C@@H](O)CC2(C)C)C(C)(C)C[C@H](O)C1=O [free astaxanthin diol]
